This note sets out measurements from patent publication US5283243A, “Piperidinoalkylbenzoxazine and piperidinoalkylbenzothiazine compounds, and medicaments containing them” (Kali-Chemie Pharma GmbH, priority 1990, dated 1994).

Read-outs that look alike come from different tables or passages of the source.

In data set [1] the test system is cyclooxygenase (6-keto-PGF1α release). Briefly: Cyclooxygenase inhibition: 6-keto-PGF1α release from zymosan-stimulated mouse peritoneal macrophage cells. To be noted: Peritoneal macrophage cell, read-out: In vitro % inhibition upon release of 6-keto-PGF1α. Type of data set: cell-based. The source says:
(§1) 5. In vitro Determination of Cyclooxygenase Inhibition and 5-Lipoxygenase Inhibition
(§2) After a cell is activated, arachidonic acid contained in cell membranes is metabolized in two ways. Leucotrienes, inter alia leucotriene C4, are formed due to the action of the enzyme 5-lipoxyqenase (=5-LO), and prostanoids are formed due to the action of the enzyme cyclooxygenase (=CO). In in vitro systems these metabolites are secreted from the cell.
(§3) To evaluate the cyclooxygenase-inhibiting and 5-lipoxygenase-inhibiting properties of the test substances, their inhibitory activity on the biosynthesis of the arachidonic acid derivatives leucotriene C4 (=LTC4) and 6-keto-prostaglandin F1α (=6-keto-PGF1 α) was determined in vitro on mouse peritoneal macrophage cells. For this purpose the LTC4 and 6-keto-PGF1 α contents of a mouse peritoneal macrophage cell culture medium were determined by zymosan stimulation as described by Scott et al. (J. Exp. Med. 152 (1980), 324-335) and by Fradin et al., (Prostaglandins, 33 (1987), 579-589).
(§4) A cell suspension containing peritoneal cells from male mice 8-10 weeks old was obtained in a known manner. A solution marketed under the designation RPMI 1640 (Manufactured by Gibco) was used as the cell culture medium, to which heparin (10 international units/ml) and antibiotics were added according to the procedure of Bonney et al. (Biochem. J. 176 (1978) 422-433). The cell suspension was adjusted to a cell concentration of 10^6 cells per ml and distributed uniformly on titer dishes containing 24 1-ml titer cells (wells). These were kept for two hours in a humidified incubator filled with air enriched with 7% CO2. Cells not adhering to the titer well walls were then removed by washing. The remaining macrophage cells adhering to the walls were incubated for about 12 hours in a suspension medium to which 0.1% of bovine serum albumin (BSA=Bovine Serum Albumin) was added. The suspension medium was then replaced by a Hanks salt solution (=Hanks Balanced Salt Solution=HBSS) with 10 mmoles of Hepes (=hydroxyethylpiperazinoethanesulfonic acid) to which a 0.1% strength solution of the test substances in aqueous, 1% strength dimethylformamide or only the solvent had been added. After 15 minutes the arachidonic acid metabolism was stimulated by adding […] of zymosan (=glycoprotein mixture isolated from cell walls of beer yeast, Saccharomyces cerevisiae, Manufactured by Sigma Chemical Co., Munich) per titre cell. After 2 hours samples of the respective supernatant liquid in each cell were examined for their 6-keto-PGF1α and LTC4 contents by an enzyme immunoassay (=EIA). This EIA is carried out following the method of Pradelles et al. (Analytical Chem. 57 (1985), 1170-1173). The determination of LTC4 and the determination of 6-keto-PGF1α were each carried out on suitable dilutions of the samples (1:50 to 1:250 for the LTC4 determination and 1:250 to 1:1,250 for the 6-keto-PGF1α determination) in comparison with a comparative scale. To determine the inhibiting effect of a 10^-5 molar concentration of the compounds, the amounts of reference eicosanoid were determined, and the inhibiting effect was calculated therefrom in % inhibition compared to the measurements of the zymosan controls.

Data set [2] has as its system PAF-induced aggregation of rabbit blood platelets. Nature of the data set: Anti-PAF activity in vitro, inhibition of PAF-induced platelet aggregation. The format is cell-based, rabbit (New Zealand hybrids). To be noted: test substance concentration of 10^-5 mole/l, pH 7.4. The source says:
4. Determination of Anti-PAF Activity In Vitro
PAF (=Platelet Activating Factor) is a phospholipid mediator which has many effects. Activation of platelet aggregation induces protracted broncho-contraction and hyper-reactivity of the air paths.
In this test the effect of the test substances on platelet aggregation induced by adding PAF to a suspension of platelets obtained from rabbit blood is investigated using the method described by Mikashima et al. (Jap. J. Pharmacol. 44 (1987) 387-391).
A suspension of platelets obtained from rabbit blood containing 4×10^9 platelets/ml in a modified Tyrode buffer solution (=Tyrode solution with 1.3 mM/1 CaCl2 and 2.5 g/l gelatine added) adjusted to pH 7.4 was used. Tyrode solution is an aqueous solution containing 136.9 mmoles NaCl, 2.68 mmoles KCl, 2.31 mmoles CaCl2, 1.0 mmole MgCl2, 11.9 mmoles NaHCO3, 1.45 mmoles NaH2 PO4 and 5.55 mmoles glucose per liter. The platelets were obtained from 10 ml blood samples from each of three rabbits (New Zealand hybrids, body weight 3-4 kg). For this the blood samples were treated with ethylenediamine tetraacetic acid and washed according to the method of Artley et al. (Brit. J. Hematol. 19 (1970), 7-17). […]
To carry out the test 50 μl of the platelet suspension and 10 μl of a 40×10^-5 molar solution of the compound being investigated were added with stirring (1,000 rpm) to 330 μl of the modified Tyrode buffer solution in an aggregation tube provided with a small magnetic stirrer. […] The aggregation occurring in the aggregation tubes was measured over 4-5 minutes with the aid of a computerized aggregometer.
The aggregation which occurred in test tubes containing only platelet suspension was evaluated as 0%, whereas the aggregation which occurred in test tubes containing platelet suspension and PAF preparation was evaluated as 100%. The aggregation which still occurred during the inhibition of the PAF induced platelet aggregation due to the addition of the test substances was measured, and the resulting aggregation inhibition was calculated therefrom in %.

Data set [3] concerns 5-lipoxygenase (LTC4 release). Nature of the data set: 5-Lipoxygenase inhibition: LTC4 release from zymosan-stimulated mouse peritoneal macrophage cells. Type of data set: cell-based. The settings on record: Peritoneal macrophage cell, read-out: In vitro % inhibition upon release of LTC4.
Text: as §1, §2, §3, §4

A further data set deals with mice. Nature of the data set: Determination of minimum toxic dose. Type of data set: in vivo. To be noted: mouse, per os; lowest dose producing death or severe toxic symptoms, maximum dose 300 mg/kg, 24 hours. As for the experimental part: 2. Determination of Minimum Toxic Dose
Maximum doses of 300 mg/kg of the test substance were administered orally to male mice weighing 20-25 g. The animals were observed carefully for 3 hours for toxicity symptoms. In addition, all symptoms and deaths were recorded over a period of 24 hours after administration. Associated symptoms were also observed and recorded. If death or severe toxic symptoms were observed, additional mice were administered increasingly lower doses. The lowest dose which produced death or severe toxic symptoms is given in the following Table B as the minimum toxic dose.

A further data set deals with T1, histamine-(H1)-receptor (Cavia porcellus, UniProt P31389).
T1 construct: Segments of the ileum 1.5 cm long from Dunkin Hartley guinea pigs; from tissue; host or cells: isolated ileum segments of Dunkin Hartley guinea pigs
T1 sequence (P31389 whole entry): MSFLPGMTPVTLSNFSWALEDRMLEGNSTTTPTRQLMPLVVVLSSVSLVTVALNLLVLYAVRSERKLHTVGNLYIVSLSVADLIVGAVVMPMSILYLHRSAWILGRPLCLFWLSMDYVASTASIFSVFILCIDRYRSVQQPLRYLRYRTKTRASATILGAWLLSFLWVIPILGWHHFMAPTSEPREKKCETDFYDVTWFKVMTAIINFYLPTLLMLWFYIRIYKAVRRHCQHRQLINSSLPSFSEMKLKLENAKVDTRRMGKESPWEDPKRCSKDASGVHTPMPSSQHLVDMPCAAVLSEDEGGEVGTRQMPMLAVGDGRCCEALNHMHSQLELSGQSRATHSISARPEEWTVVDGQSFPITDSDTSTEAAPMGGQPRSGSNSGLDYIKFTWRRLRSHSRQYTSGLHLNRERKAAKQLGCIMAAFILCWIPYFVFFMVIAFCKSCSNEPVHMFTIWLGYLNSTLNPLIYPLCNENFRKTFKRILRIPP
Briefly: Anti-histamine-(H1) effect, inhibition of histamine-induced contraction of isolated guinea pig ileum in vitro. Type of data set: cell-based, Dunkin Hartley guinea pigs. To be noted: histamine 5 × 10^-6 mole/l, test substance 10^-6 mole/l. The method, then:
3. Investigation of Anti-Histamine-(H1) Effect Based on Histamine-(H1)-Receptor Antagonism In Vitro
To investigate the histamine-(H1)-receptor antagonism of the test substances, the inhibiting effect of the substances on histamine-induced contractions of the smooth muscle was determined in vitro on the isolated organ. Isolated strips of organ from the ileum are suitable for this purpose. In an organ bath of physiological saline solution the smooth muscle strips react to the addition of histamine by contracting. […] The extent of regression of the contraction is an indication of the anti-histamine-(H1) activity of the compounds. The investigation was carried out analogously to the method originally described by Magnus (Pfluegers Arch. 102, 123 (1904)). Procedure for determining the smooth muscle contraction inhibiting effect on isolated guinea pig ileum induced by a 5×10^-6 molar histamine concentration.
Segments of the ileum 1.5 cm long from Dunkin Hartley guinea pigs having a body weight of 300 500 g were used for the test. Each strip was placed in an organ bath of 10 ml of physiological saline solution according to Krebs-Henseleit and attached to a conventional apparatus for isotonic measurement of changes in length of the ileum strips (automated Celaster measuring apparatus), so that the tissue was under 1 g of tension. The bath was kept at a pH of 7.4 and gassed with a mixture of 5% CO2 and 95% 02. After an equilibration phase, an isotonic contraction of the tissue was induced by adding histamine in a final concentration of 5×10^-6 mole/liter and washing it out again after a contact time of 30 seconds. Only tissues samples from which three reproducible contractions were obtained at 10 minute intervals were used in the subsequent test. The test substances were then added in a final concentration of 10^-6 mole/liter, and after 30 seconds contact time histamine was again added up to a concentration of 5×10^-6 mole/liter. The resulting contractions were measured over 30 seconds. The tissue was then washed several times over a period of 10 minutes. Histamine was then added again to stimulate a contraction. The resulting contractions were again measured over 30 seconds. The difference between the amplitude of the contraction obtained by histamine addition alone and the amplitude of the contraction obtained in the presence of the test substance was determined and expressed in terms of % inhibition.
The inhibiting effects on the contractions induced by histamine 30 seconds after administration of the test substance and on the contractions induced by the addition of histamine 10 minutes later are listed in the table.

[4] abbreviates: zymosan-stimulated mouse peritoneal macrophage cells, 10^-5 mole/l.

The term inhibition denotes the drop in the measured response relative to a control, in per cent. Turning to `Cc1cc2c(cc1C)SC(CCCCN1CC=C(c3ccccc3)CC1)C(=O)N2` (stereo not drawn) [Example 19], the inhibition at 10 µM in data set [1] (setting [4]) is 16%; in data set [3] (setting [4]), 57%. The “% inhibition of the PAF-induced aggregation of rabbit blood platelets” value (shortened to “% inhibition … of rabbit blood platelets”) in data set [2] came to 72%.
For the compound `N#CC1(c2ccccc2)CCN(CCCC2Oc3ccc(Cl)cc3NC2=O)CC1` (stereo not drawn) [Example 14], the inhibition at 10 µM in data set [1] (Mus musculus) came to 25%; in data set [3] (Mus musculus) it was 10%. In data set [2], the “% inhibition … of rabbit blood platelets” value is 57%.
On to `O=C1Nc2ccccc2SC1CCCN1CCC(Cc2ccccc2)CC1` (stereo not drawn) [Example 21], for which the inhibition at 10 µM in data set [1] (setting [4]) is 11%; in data set [3] (setting [4]), 24%. Further, the Minimum toxic dose with mice is given as 100 mg/kg. Further, in data set [2], the “% inhibition … of rabbit blood platelets” value was 33%.
Turning to `O=C1Nc2ccccc2OC1CCCCN1CCC(O)(c2ccccc2)CC1` (stereo not drawn) [Example 13], the “in vitro (H1)-receptor antagonism, % inhibition of histamine-induced ileum contractions after 30 seconds” value on histamine-(H1)-receptor (after 30 seconds) worked out at 49%. In addition, the “in vitro (H1)-receptor antagonism, % inhibition of histamine-induced ileum contractions after 10 minutes” value at histamine-(H1)-receptor (after 10 minutes) is recorded as 8%.
